In patent US11447466B2, “Substituted indole compounds useful as inhibitors of TLR7/8/9” (BRISTOL-MYERS SQUIBB COMPANY, priority 2017, dated 2022):

Assays:
Format in all cases: cell-based
human TLR7 = target: T1, human TLR7 (Homo sapiens, UniProt Q9NYK1); assay: TLR7 inhibition reporter assay (HEK-Blue SEAP reporter, gardiquimod stimulation); details: HEK-Blue cells overexpressing human TLR7, SEAP reporter, gardiquimod 7.5 μM, 22 hour incubation
T1 construct: host or cells: HEK-Blue cells
T1 sequence (Q9NYK1 27-1049): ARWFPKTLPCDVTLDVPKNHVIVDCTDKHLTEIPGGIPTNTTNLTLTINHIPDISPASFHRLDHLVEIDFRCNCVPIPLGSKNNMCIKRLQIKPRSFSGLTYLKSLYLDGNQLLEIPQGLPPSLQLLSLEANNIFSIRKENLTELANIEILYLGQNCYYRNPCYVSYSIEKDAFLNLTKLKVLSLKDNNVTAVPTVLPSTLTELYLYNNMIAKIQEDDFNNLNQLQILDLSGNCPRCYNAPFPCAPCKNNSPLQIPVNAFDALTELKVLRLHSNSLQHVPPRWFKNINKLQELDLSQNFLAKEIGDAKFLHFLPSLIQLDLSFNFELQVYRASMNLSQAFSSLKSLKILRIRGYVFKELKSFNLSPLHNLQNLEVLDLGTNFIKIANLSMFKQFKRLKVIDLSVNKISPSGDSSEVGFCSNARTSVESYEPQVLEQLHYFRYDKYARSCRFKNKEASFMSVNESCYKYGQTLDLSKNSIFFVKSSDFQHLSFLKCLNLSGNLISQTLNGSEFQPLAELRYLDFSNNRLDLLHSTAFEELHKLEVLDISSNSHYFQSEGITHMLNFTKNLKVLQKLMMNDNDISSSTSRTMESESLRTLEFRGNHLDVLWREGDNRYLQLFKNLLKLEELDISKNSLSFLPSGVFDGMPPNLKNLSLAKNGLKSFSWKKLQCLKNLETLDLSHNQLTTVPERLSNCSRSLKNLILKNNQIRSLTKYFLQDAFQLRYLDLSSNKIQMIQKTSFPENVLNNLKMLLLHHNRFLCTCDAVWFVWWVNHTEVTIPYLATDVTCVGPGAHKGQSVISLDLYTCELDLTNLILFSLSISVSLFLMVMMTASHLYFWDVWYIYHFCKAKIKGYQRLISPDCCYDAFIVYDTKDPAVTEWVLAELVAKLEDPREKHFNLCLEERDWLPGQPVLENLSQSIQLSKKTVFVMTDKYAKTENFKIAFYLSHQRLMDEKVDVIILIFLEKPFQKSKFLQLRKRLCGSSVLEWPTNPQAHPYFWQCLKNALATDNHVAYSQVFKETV
Procedure, shortened: (§1)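 HEK-Blue cells overexpressing human TLR7, TLR8 or TLR9 carry a SEAP reporter driven by NF-κB/AP-1 sites. Compounds (0.05 nM–50 μM) were preincubated 30 min at room temperature, then cells were stimulated with gardiquimod 7.5 μM (TLR7), R848 15.9 μM (TLR8) or ODN2006 5 nM (TLR9) for 22 h at 37 °C.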

human TLR8 = target: T2, human TLR8 (Homo sapiens, UniProt Q9NR97); assay: TLR8 inhibition reporter assay (HEK-Blue SEAP reporter, R848 stimulation); details: HEK-Blue cells overexpressing human TLR8, SEAP reporter, R848 15.9 μM, 22 hour incubation
T2 construct: host or cells: HEK-Blue cells
T2 sequence (Q9NR97 27-1041): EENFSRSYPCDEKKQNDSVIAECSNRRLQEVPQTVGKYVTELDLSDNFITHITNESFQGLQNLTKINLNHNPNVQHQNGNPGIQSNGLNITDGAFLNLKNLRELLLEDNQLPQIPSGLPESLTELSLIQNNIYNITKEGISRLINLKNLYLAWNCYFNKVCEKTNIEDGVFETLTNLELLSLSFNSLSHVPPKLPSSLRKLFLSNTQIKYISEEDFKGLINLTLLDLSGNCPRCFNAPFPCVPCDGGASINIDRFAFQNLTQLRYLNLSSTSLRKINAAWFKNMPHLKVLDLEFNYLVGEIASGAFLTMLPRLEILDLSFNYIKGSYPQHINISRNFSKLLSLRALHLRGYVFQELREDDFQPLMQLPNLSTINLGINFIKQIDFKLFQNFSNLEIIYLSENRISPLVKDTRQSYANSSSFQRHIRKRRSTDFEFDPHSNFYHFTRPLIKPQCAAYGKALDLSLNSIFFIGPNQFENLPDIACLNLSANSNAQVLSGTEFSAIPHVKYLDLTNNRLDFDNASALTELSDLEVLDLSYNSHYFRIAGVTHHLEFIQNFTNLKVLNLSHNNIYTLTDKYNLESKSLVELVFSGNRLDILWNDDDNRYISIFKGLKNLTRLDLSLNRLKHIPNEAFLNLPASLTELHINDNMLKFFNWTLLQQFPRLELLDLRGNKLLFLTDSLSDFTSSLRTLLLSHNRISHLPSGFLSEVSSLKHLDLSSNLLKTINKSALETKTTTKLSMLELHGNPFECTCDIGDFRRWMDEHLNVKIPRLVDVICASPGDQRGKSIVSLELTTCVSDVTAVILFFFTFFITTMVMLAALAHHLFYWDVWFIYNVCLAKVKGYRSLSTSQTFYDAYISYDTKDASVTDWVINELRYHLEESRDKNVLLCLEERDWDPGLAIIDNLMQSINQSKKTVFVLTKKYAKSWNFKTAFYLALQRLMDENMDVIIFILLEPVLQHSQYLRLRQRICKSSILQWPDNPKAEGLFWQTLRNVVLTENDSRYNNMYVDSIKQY
Procedure, shortened: as §1

human TLR9 = target: T3, human TLR9 (Homo sapiens, UniProt Q9NR96); assay: TLR9 inhibition reporter assay (HEK-Blue SEAP reporter, ODN2006 stimulation); details: HEK-Blue cells overexpressing human TLR9, SEAP reporter, ODN2006 5 nM, 22 hour incubation
T3 construct: host or cells: HEK-Blue cells
T3 sequence (Q9NR96 26-1032): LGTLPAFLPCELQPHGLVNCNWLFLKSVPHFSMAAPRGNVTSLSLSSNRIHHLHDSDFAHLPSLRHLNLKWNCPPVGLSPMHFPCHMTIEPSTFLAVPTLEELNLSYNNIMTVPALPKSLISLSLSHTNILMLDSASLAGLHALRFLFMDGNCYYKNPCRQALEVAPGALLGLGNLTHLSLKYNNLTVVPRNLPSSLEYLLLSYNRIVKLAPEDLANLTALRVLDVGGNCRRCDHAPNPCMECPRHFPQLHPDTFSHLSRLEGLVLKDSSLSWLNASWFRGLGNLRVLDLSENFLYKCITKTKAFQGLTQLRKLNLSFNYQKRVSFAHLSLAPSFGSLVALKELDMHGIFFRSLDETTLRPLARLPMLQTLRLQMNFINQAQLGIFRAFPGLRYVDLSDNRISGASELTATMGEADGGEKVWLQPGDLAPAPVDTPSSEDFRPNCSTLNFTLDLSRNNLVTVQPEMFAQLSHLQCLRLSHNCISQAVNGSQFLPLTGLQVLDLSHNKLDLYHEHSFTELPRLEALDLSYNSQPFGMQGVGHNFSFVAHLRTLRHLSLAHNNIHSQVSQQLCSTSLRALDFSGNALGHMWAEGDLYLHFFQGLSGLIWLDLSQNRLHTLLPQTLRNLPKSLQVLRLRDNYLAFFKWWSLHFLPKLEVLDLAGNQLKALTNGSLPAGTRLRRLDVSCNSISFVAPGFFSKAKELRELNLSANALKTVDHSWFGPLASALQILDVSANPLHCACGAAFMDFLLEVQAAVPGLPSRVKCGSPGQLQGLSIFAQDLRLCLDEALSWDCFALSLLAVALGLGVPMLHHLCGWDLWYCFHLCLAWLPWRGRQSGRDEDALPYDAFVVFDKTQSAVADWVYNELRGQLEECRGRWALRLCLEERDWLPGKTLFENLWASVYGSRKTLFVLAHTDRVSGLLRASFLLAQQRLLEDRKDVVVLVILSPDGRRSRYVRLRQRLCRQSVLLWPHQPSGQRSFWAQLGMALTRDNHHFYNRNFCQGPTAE
Procedure, shortened: as §1

SMILES | IC50 (human TLR7) | IC50 (human TLR8) | IC50 (human TLR9)
Cc1c(-c2[nH]c3ccc(C4CCN(C(C)C(N)=O)CC4)cc3c2C(C)C)cn(C)c(=O)c1Cl (stereo not drawn) [Example 156, 2-(4-(2-(5-chloro-1,4-dimethyl-6-oxo-1,6-dihydropyridin-3-yl)-3-isopropyl-1H-indol-5-yl)piperidin-1-yl)propanamide] | 4.3 nM | 7.4 nM | 11800 nM
CCc1c(-c2cn(C)c(=O)c(Cl)c2C)[nH]c2ccc(C3CCN(CC(=O)N(C)C)CC3)cc12 [Example 157, 2-(4-(2-(5-chloro-1,4-dimethyl-6-oxo-1,6-dihydropyridin-3-yl)-3-ethyl-1H-indol-5-yl)piperidin-1-yl)-N,N-dimethylacetamide] | 12.8 nM | 12.2 nM | 6390 nM
Cc1c(-c2[nH]c3ccc(C4CCN(CC(=O)N(C)C)CC4)c(F)c3c2C(C)C)cn(C)c(=O)c1Cl [Example 158, 2-(4-(2-(5-chloro-1,4-dimethyl-6-oxo-1,6-dihydropyridin-3-yl)-4-fluoro-3-isopropyl-1H-indol-5-yl)piperidin-1-yl)-N,N-dimethylacetamide] | 6.6 nM | 2.6 nM | 3530 nM
CNC(=O)CN1CCC(c2ccc3[nH]c(-c4cc(C)c(=O)n(CCOC)c4)c(C(C)C)c3c2)CC1 [Example 160, 2-(4-(3-isopropyl-2-(1-(2-methoxyethyl)-5-methyl-6-oxo-1,6-dihydropyridin-3-yl)-1H-indol-5-yl)piperidin-1-yl)-N-methylacetamide] | 8.9 nM | 14.5 nM | 14700 nM
CNC(=O)CN1CCC(c2ccc3[nH]c(-c4cc(C)c(=O)n(CC(C)C)c4)c(C(C)C)c3c2)CC1 [Example 161, 2-(4-(2-(1-isobutyl-5-methyl-6-oxo-1,6-dihydropyridin-3-yl)-3-isopropyl-1H-indol-5-yl)piperidin-1-yl)-N-methylacetamide] | 50.5 nM | 239 nM | 8730 nM
CNC(=O)CN1CCC(c2ccc3[nH]c(-c4cc(C)c(=O)n(Cc5ccccc5)c4)c(C(C)C)c3c2)CC1 [Example 162, 2-(4-(2-(1-benzyl-5-methyl-6-oxo-1,6-dihydropyridin-3-yl)-3-isopropyl-1H-indol-5-yl)piperidin-1-yl)-N-methylacetamide] | 8.4 nM | 99.4 nM | 4120 nM
Cc1cc(-c2[nH]c3ccc(C4CCN(CC(=O)N(C)C)CC4)cc3c2C(C)C)cn(Cc2ccccc2)c1=O [Example 164, 2-(4-(2-(1-benzyl-5-methyl-6-oxo-1,6-dihydropyridin-3-yl)-3-isopropyl-1H-indol-5-yl)piperidin-1-yl)-N,N-dimethylacetamide] | 7 nM | 42.4 nM | 2560 nM

The next lines start with the values.

IC50 (human TLR7) | IC50 (human TLR8) | IC50 (human TLR9) | SMILES
10.2 nM | 19.7 nM | 16600 nM | COCCn1cc(-c2[nH]c3ccc(C4CCN(CC(=O)N(C)C)CC4)cc3c2C(C)C)cc(C)c1=O [Example 159, 2-(4-(3-isopropyl-2-(1-(2-methoxyethyl)-5-methyl-6-oxo-1,6-dihydropyridin-3-yl)-1H-indol-5-yl)piperidin-1-yl)-N,N-dimethylacetamide]
12.3 nM | 118 nM | 3890 nM | Cc1cc(-c2[nH]c3ccc(C4CCN(CC(=O)N(C)C)CC4)cc3c2C(C)C)cn(CC(C)C)c1=O [Example 163, 2-(4-(2-(1-isobutyl-5-methyl-6-oxo-1,6-dihydropyridin-3-yl)-3-isopropyl-1H-indol-5-yl)piperidin-1-yl)-N,N-dimethylacetamide]
45.8 nM | 113 nM | 10100 nM | Cc1cc(-c2[nH]c3ccc(C4CCN(CC(=O)N(C)C)CC4)cc3c2C(C)C)cn(CC(F)(F)F)c1=O [Example 165, 2-(4-(3-isopropyl-2-(5-methyl-6-oxo-1-(2,2,2-trifluoroethyl)-1,6-dihydropyridin-3-yl)-1H-indol-5-yl)piperidin-1-yl)-N,N-dimethylacetamide]
61.7 nM | 15.6 nM | 49300 nM | Cc1cc(-c2[nH]c3ccc(C4CCN(CC(=O)N(C)C)CC4)cc3c2C(C)C)cn(CCO)c1=O [Example 167, 2-(4-(2-(1-(2-hydroxyethyl)-5-methyl-6-oxo-1,6-dihydropyridin-3-yl)-3-isopropyl-1H-indol-5-yl)piperidin-1-yl)-N,N-dimethylacetamide]
7.9 nM | 10.3 nM | 2380 nM | CCc1cc(-c2[nH]c3ccc(C4CCN(CC(=O)N(C)C)CC4)cc3c2C(C)C)cn(C)c1=O [Example 168, 2-(4-(2-(5-ethyl-1-methyl-6-oxo-1,6-dihydropyridin-3-yl)-3-isopropyl-1H-indol-5-yl)piperidin-1-yl)-N,N-dimethylacetamide]
11.9 nM | 6.2 nM | 1800 nM | CC(C)c1c(-c2cc(-c3cccnc3)c(=O)n(C)c2)[nH]c2ccc(C3CCN(CC(=O)N(C)C)CC3)cc12 [Example 169, 2-(4-(3-isopropyl-2-(1-methyl-2-oxo-1,2-dihydro-[3,3′-bipyridin]-5-yl)-1H-indol-5-yl)piperidin-1-yl)-N,N-dimethylacetamide]
